pEC50: −log10 of the molar value. ≈ marks a conversion by molar mass, not a printed value.
Assays:
E. coli K12 PBP3 = biological target: T1, E. coli K12 PBP3 (Escherichia coli, UniProt P0AD68); assay: biochemical; type: binding
T1 construct: made in house
How it was run: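 Fluorescence polarization (ex 490/em 520 nm) competition of inhibitors against Bocillin-FL at 0.1 μM, read up to 60 min. Final PBP levels: E. coli PBP3 1.5 μM; A. baumannii PBP2 2.5 μM, PBP3 0.2 μM in Tris pH 8.0/NaCl/glycerol/Tween 20; N. gonorrhoeae PBP2 […] in Hepes pH 8.0/NaCl/glycerol. EC50 = concentration halving PBP-bound Bocillin-FL.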

P. aeruginosa PBP3 = biological target: T2, P. aeruginosa PBP3 (Pseudomonas aeruginosa, UniProt G3XD46); assay: Bocillin-FL fluorescence polarization competition binding assay, P. aeruginosa PBP3; conditions: fluorescence polarization competition binding assay using Bocillin-FL
T2 construct: made in house
T2 sequence (G3XD46 whole entry): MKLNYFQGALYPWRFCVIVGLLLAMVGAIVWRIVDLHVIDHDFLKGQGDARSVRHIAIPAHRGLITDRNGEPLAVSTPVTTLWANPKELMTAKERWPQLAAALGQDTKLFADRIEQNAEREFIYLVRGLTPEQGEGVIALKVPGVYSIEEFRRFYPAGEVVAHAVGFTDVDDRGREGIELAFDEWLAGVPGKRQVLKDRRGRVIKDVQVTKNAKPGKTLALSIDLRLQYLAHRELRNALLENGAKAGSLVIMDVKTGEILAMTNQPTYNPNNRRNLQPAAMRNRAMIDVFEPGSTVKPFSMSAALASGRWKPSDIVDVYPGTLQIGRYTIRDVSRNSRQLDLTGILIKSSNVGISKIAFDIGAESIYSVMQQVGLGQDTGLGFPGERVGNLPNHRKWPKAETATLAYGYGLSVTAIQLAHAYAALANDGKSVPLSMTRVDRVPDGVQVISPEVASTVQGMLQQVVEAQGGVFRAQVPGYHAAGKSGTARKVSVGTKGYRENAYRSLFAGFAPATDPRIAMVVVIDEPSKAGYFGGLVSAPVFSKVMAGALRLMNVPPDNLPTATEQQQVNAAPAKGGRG
How it was run: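 Binding of boronic acid inhibitors to purified Pseudomonas aeruginosa (PA01) PBP3 was measured by fluorescence polarization competition with Bocillin-FL, a fluorescent penicillin V. Reactions of 80 μl contained 0.75 μM PBP3 and 0.1 μM Bocillin-FL in 50 mM Hepes (pH 8.0), 300 mM NaCl and 5% (v/v) glycerol, in black 384-well plates. FP (Excitation 490 nm, Emission 520 nm) was read for up to 60 minutes. EC50 is the concentration that halves PBP-bound Bocillin-FL.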

N. gonorrhoeae H041 = assay: Liquid broth MIC in Fastidious broth; type: cell-based; conditions: Neisseria gonorrhoeae, H041, read-out: Minimum Inhibitory Concentration, N. gonorrhoeae H041
How it was run: (§1)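 MIC = lowest concentration giving <10% growth relative to untreated wells, scored by eye after ~24 h at 36 °C, 5% CO2. Strains carry mosaic PBP2; inoculum 5×10^5 CFU/mL in Fastidious broth with 2-fold serial compound dilutions.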

N. gonorrhoeae WHO G = assay: Liquid broth MIC in Fastidious broth; type: cell-based; conditions: Neisseria gonorrhoeae; N. gonorrhoeae strain WHO G; Fastidious broth; read-out: Minimum Inhibitory Concentration, N. gonorrhoeae WHO G
How it was run: (§2)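 Colonies were swabbed from chocolate agar after 24 h growth and standardised by optical density at 600 nm. Compounds were serially diluted twofold in Fastidious broth, and bacteria added to give 5×10^5 CFU/mL. After about 24 h at 36 °C in 5% CO2, the lowest concentration allowing under 10% growth was taken as MIC.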

N. gonorrhoeae FA1090 = assay: Liquid broth MIC in Fastidious broth; type: cell-based; conditions: Neisseria gonorrhoeae; N. gonorrhoeae strain FA1090; Fastidious broth; read-out: Minimum Inhibitory Concentration, N. gonorrhoeae FA1090
How it was run: as §2

[1] = system: N. gonorrhoeae ATCC 49226; assay: Liquid broth MIC in Fastidious broth; type: cell-based; conditions: Neisseria gonorrhoeae, ATCC49226; N. gonorrhoeae strain ATCC 49226; Fastidious broth; read-out: Minimum Inhibitory Concentration, N. gonorrhoeae ATCC 49226
How it was run: as §2

N. gonorrhoeae WHO K = assay: Liquid broth MIC in Fastidious broth; type: cell-based; conditions: Neisseria gonorrhoeae, read-out: Minimum Inhibitory Concentration, N. gonorrhoeae WHO K
How it was run: as §1

N. gonorrhoeae WHO L = assay: Liquid broth MIC in Fastidious broth; type: cell-based; conditions: Neisseria gonorrhoeae; N. gonorrhoeae strain WHO L; Fastidious broth; read-out: Minimum Inhibitory Concentration, N. gonorrhoeae WHO L
How it was run: as §2

T1 sequence (P0AD68 1-577): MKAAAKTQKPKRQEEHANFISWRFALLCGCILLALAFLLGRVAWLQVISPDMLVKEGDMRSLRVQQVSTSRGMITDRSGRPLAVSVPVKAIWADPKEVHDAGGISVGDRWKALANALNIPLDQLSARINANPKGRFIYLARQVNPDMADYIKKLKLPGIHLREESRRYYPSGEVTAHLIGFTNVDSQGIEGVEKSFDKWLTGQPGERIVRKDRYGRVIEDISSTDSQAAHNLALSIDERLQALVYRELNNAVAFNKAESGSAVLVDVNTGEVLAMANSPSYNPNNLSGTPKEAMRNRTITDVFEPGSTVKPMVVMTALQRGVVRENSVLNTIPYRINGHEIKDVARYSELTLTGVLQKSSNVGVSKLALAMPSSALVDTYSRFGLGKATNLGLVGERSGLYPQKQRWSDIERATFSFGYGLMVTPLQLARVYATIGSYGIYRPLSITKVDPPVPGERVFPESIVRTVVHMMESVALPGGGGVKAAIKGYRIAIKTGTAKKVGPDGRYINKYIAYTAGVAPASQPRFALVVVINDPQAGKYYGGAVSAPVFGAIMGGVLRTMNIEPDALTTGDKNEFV

Row | Structure (SMILES) | pEC50 (E. coli K12 PBP3) | P. aeruginosa PBP3 Potency (P. aeruginosa PBP3) | MIC (N. gonorrhoeae H041) | MIC (N. gonorrhoeae WHO G) | MIC (N. gonorrhoeae FA1090) | MIC [1] | MIC (N. gonorrhoeae WHO K) | MIC (N. gonorrhoeae WHO L)
1 | NCCN1CCN(C(=O)N[C@@H](C(=O)N[C@H]2Cc3cccc(C(=O)O)c3OB2O)c2ccc(O)cc2Cl)C(=O)C1=O (single isomer, unassigned) [Example 86] | > 4.52 | D (D represents a potency <10 μM) | > 64 µg/mL | 4 to 8 µg/mL (≈ 6.97 to 13.9 µM) | 1 to 2 µg/mL (≈ 1.74 to 3.49 µM) | > 64 µg/mL | > 64 µg/mL | > 64 µg/mL
2 | CCN1CCN(C(=O)NC(C(=O)N[C@H]2Cc3cccc(C(=O)O)c3OB2O)c2c(F)cc(O)cc2Cl)C(=O)C1=O (stereo partly drawn) [Example 95, (3R)-3-(2-(2-chloro-6-fluoro-4-hydroxyphenyl)-2-(4-ethyl-2,3-dioxopiperazine-1-carboxamido)acetamido)-2-hydroxy-3,4-dihydro-2H-benzo[e][1,2]oxaborinine-8-carboxylic acid] | > 4.52 | D (D represents a potency <10 μM) | 16 to 32 µg/mL (≈ 27.7 to 55.5 µM) | 1 to 2 µg/mL (≈ 1.73 to 3.47 µM) | < 0.125 µg/mL | 4 to 8 µg/mL (≈ 6.94 to 13.9 µM) | 16 to 32 µg/mL (≈ 27.7 to 55.5 µM) | 16 to 32 µg/mL (≈ 27.7 to 55.5 µM)
3 | CCN1CCN(C(=O)NC(C(=O)N[C@H]2Cc3cccc(C(=O)O)c3OB2O)c2ccc(C(=O)O)c(F)c2)C(=O)C1=O (stereo partly drawn) [Example 31, (3R)-3-(2-(4-carboxy-3-fluorophenyl)-2-(4-ethyl-2,3-dioxopiperazine-1-carboxamido)acetamido)-2-hydroxy-3,4-dihydro-2H-benzo[e][1,2]oxaborinine-8-carboxylic acid] | > 4.52 | D (D represents a potency <10 μM) | 4 to 8 µg/mL (≈ 7.01 to 14 µM) | 1 to 2 µg/mL (≈ 1.75 to 3.51 µM) | < 0.125 µg/mL | 1 to 2 µg/mL (≈ 1.75 to 3.51 µM) | 4 to 8 µg/mL (≈ 7.01 to 14 µM) | 4 to 8 µg/mL (≈ 7.01 to 14 µM)
4 | CCN1CCN(C(=O)NC(C(=O)N[C@H]2Cc3cccc(C(=O)O)c3OB2O)c2cccc(NS(N)(=O)=O)c2)C(=O)C1=O (stereo partly drawn) [Example 98, (3R)-3-(2-(4-ethyl-2,3-dioxopiperazine-1-carboxamido)-2-(3-(sulfamoylamino)phenyl)acetamido)-2-hydroxy-3,4-dihydro-2H-benzo[e][1,2]oxaborinine-8-carboxylic acid] | > 4.52 | D (D represents a potency <10 μM) | 16 to 32 µg/mL (≈ 26.6 to 53.1 µM) | 1 to 2 µg/mL (≈ 1.66 to 3.32 µM) | 0.25 to 0.5 µg/mL (≈ 0.415 to 0.83 µM) | 16 to 32 µg/mL (≈ 26.6 to 53.1 µM) | 16 to 32 µg/mL (≈ 26.6 to 53.1 µM) | > 64 µg/mL
5 | CCN1CCN(C(=O)NC(C(=O)N[C@H]2Cc3cccc(C(=O)O)c3OB2O)c2ccc(O)c(NS(N)(=O)=O)c2)C(=O)C1=O (stereo partly drawn) [Example 30, (3R)-3-(2-(4-ethyl-2,3-dioxopiperazine-1-carboxamido)-2-(4-hydroxy-3-(sulfamoylamino)phenyl)acetamido)-2-hydroxy-3,4-dihydro-2H-benzo[e][1,2]oxaborinine-8-carboxylic acid] | > 4.52 | D (D represents a potency <10 μM) | > 64 µg/mL | 16 to 32 µg/mL (≈ 25.9 to 51.7 µM) | 1 to 2 µg/mL (≈ 1.62 to 3.23 µM) | > 64 µg/mL | > 64 µg/mL | > 64 µg/mL
6 | NCCN1CCN(C(=O)NC(C(=O)N[C@H]2Cc3ccc(F)c(C(=O)O)c3OB2O)c2nc(N)sc2F)C(=O)C1=O (stereo partly drawn) [Example 24, (3R)-3-(2-(2-amino-5-fluorothiazol-4-yl)-2-(4-(2-aminoethyl)-2,3-dioxopiperazine-1-carboxamido)acetamido)-7-fluoro-2-hydroxy-3,4-dihydro-2H-benzo[e][1,2]oxaborinine-8-carboxylic acid] | 3.30 to 4.52 | B (B represents a potency between 30 μM and 500 μM inclusive) | > 64 µg/mL | 16 to 32 µg/mL (≈ 27.5 to 55 µM) | 16 to 32 µg/mL (≈ 27.5 to 55 µM) | > 64 µg/mL | > 64 µg/mL | > 64 µg/mL
7 | CCN1CCN(C(=O)NC(C(=O)N[C@H]2Cc3cccc(C(=O)O)c3OB2O)c2ccc(O)cc2OC)C(=O)C1=O (stereo partly drawn) [Example 70, (3R)-3-(2-(4-ethyl-2,3-dioxopiperazine-1-carboxamido)-2-(4-hydroxy-2-methoxyphenyl)acetamido)-2-hydroxy-3,4-dihydro-2H-benzo[e][1,2]oxaborinine-8-carboxylic acid] | 3.30 to 4.52 | D (D represents a potency <10 μM) | > 64 µg/mL | 16 to 32 µg/mL (≈ 28.9 to 57.7 µM) | 1 to 2 µg/mL (≈ 1.8 to 3.61 µM) | 16 to 32 µg/mL (≈ 28.9 to 57.7 µM) | > 64 µg/mL | > 64 µg/mL
8 | NCCN1CCN(C(=O)N[C@@H](C(=O)N[C@H]2Cc3ccc(F)c(C(=O)O)c3OB2O)c2c(F)cc(O)c(O)c2Cl)C(=O)C1=O (single isomer, unassigned) [Example 26] | > 4.52 | D (D represents a potency <10 μM) | > 64 µg/mL | > 64 µg/mL | 16 to 32 µg/mL (≈ 25.6 to 51.1 µM) | > 64 µg/mL | > 64 µg/mL | > 64 µg/mL
9 | O=C(NC(C(=O)N[C@H]1Cc2ccc(F)c(C(=O)O)c2OB1O)c1ncc(O)cc1F)c1c(F)cc(O)c(O)c1Cl (stereo partly drawn) [Example 10, (3R)-3-(2-(2-chloro-6-fluoro-3,4-dihydroxybenzamido)-2-(3-fluoro-5-hydroxypyridin-2-yl)acetamido)-7-fluoro-2-hydroxy-3,4-dihydro-2H-benzo[e][1,2]oxaborinine-8-carboxylic acid] | 3.30 to 4.52 | D (D represents a potency <10 μM) | > 64 µg/mL | > 64 µg/mL | 16 to 32 µg/mL (≈ 27.5 to 55 µM) | > 64 µg/mL | > 64 µg/mL | > 64 µg/mL
10 | NCCN1CCN(C(=O)N[C@@H](C(=O)N[C@H]2Cc3ccc(F)c(C(=O)O)c3OB2O)c2c(F)cc(O)c(O)c2F)C(=O)C1=O (single isomer, unassigned) [Example 40] | > 4.52 | D (D represents a potency <10 μM) | > 64 µg/mL | 16 to 32 µg/mL (≈ 26.3 to 52.5 µM) | 4 to 8 µg/mL (≈ 6.57 to 13.1 µM) | 16 to 32 µg/mL (≈ 26.3 to 52.5 µM) | > 64 µg/mL | > 64 µg/mL
11 | O=C(O)c1c(F)ccc2c1OB(O)[C@@H](NC(=O)[C@H](NC(=O)N1CCNC1=O)c1c(F)cc(O)c(O)c1Cl)C2 (single isomer, unassigned) [Example 34] | > 4.52 | D (D represents a potency <10 μM) | > 64 µg/mL | 16 to 32 µg/mL (≈ 28.8 to 57.7 µM) | 4 to 8 µg/mL (≈ 7.21 to 14.4 µM) | 16 to 32 µg/mL (≈ 28.8 to 57.7 µM) | > 64 µg/mL | > 64 µg/mL
12 | NCCCN1CCN(C(=O)NC(C(=O)N[C@H]2Cc3cccc(C(=O)O)c3OB2O)c2ccc(C(N)=O)c(O)c2)C(=O)C1=O (stereo partly drawn) [Example 47, (3R)-3-(2-(4-(3-aminopropyl)-2,3-dioxopiperazine-1-carboxamido)-2-(4-carbamoyl-3-hydroxyphenyl)acetamido)-2-hydroxy-3,4-dihydro-2H-benzo[e][1,2]oxaborinine-8-carboxylic acid] | 3.30 to 4.52 | D (D represents a potency <10 μM) | > 64 µg/mL | 4 to 8 µg/mL (≈ 6.71 to 13.4 µM) | 0.25 to 0.5 µg/mL (≈ 0.419 to 0.838 µM) | 4 to 8 µg/mL (≈ 6.71 to 13.4 µM) | > 64 µg/mL | > 64 µg/mL

Reference: patent publication US20230114728A1 (Venatorx Pharmaceuticals, Inc., priority 2019, published 2023)
